Source: patent publication US11286236B2, “Compound, agent and composition for the suppression of cancer growth” (Vector Vitale IP LLC, priority 2018, dated 2022)
Counter-ions that a name gives are not always drawn.

Key:
[1] = system: Mouse B16 melanoma cells (MM-4 cell line); assay: Cytotoxic/cytostatic activity of E2+85Rbe and antitumor drug added simultaneously; format: cell-based
Procedure: The effects of the complex action of various doses of the investigated substances were evaluated using the concept of synergistic, additive and antagonistic effects of the drugs. The mathematics are detailed below. […] The effects were calculated using the Chou-Talalay method according to the following equation (“CI” refers to the “combination index”) (see T.-C. […] Where both the ^85Rb-enriched rubidium salt (referred to as “E2+^85Rbe”) and an AD were administered, they were administered simultaneously.

[2] = system: Ehrlich ascites carcinoma; assay: In vivo antitumor activity against Ehrlich ascites carcinoma; set-up: species or system mouse
Procedure: Outbred mice were administered Ehrlich ascites carcinoma cells (EAC) intraperitoneally (IP) at a dose of 2.5×10^5 cells in 0.25 ml of normal saline solution. The compounds under study, 1)^85RbeE2, was dissolved in deuterium-depleted water and 2) Cisplatin (Teva, the Netherlands), was dissolved in normal saline solution. The drugs were administered starting from the first day after mice were inoculated with tumor cells, using a microinjection syringe, at the following doses: 1)^85Rbe-E2 at a dose of 750 μg/mouse (weighing 20 g) in a volume of 0.3 ml as 3 IP injections (1 injection—250 μg/mouse) on the 1st, 4th and 7th day of the experiment; 2) Cisplatin at a dose of 4.5 mg/kg or 1.5 mg/kg as 3 IP injections on the 2nd, 5th and 8th day of the experiment. The dynamics of tumor growth in the experimental animals was observed (based on the volume of ascites in the peritoneal cavity) after the tumor cell inoculation and for 31 days of the experiment. On the 15th and 22nd day after IP administration of tumor cells, all the fluid accumulated in each animal's abdomen was extracted and the total number of live/dead cells in each mouse was determined. In addition, some mice were used to assess a survival rate of animals in the experiment.
Laboratory animals. 84 outbred female 10 to 12-week old mice weighing 22-26 g were used in the experimental study. The animals were obtained from the animal vivarium at R.E. Kavetsky IEPOR NASU. […] The animals were maintained in plastic cages, under natural light-dark cycles, fed standard food and allowed free access to food and tap water.
Tumor model. Ascites strain of Ehrlich ascites carcinoma maintained on outbred mice obtained from the cell and tissue line bank at R.E. Kavetsky IEPOR NASU was used in the experiment. To prepare the strain for injection, tumor cells derived from ascitic fluid were placed in normal saline solution and cellularity of the suspension was assessed in a hemocytometer and adjusted to a concentration of 1·10^6 cells/ml with saline solution. The tumor cells were inoculated by injecting 250 mcl of cell suspension from the tumor (0.25×10^6 cells/mouse) into the peritoneal cavity of laboratory animals.
The drugs were administered IP every other day, using a microinjection syringe, at doses specified above as a series of 3 injections of each compound according to the following scheme: ^85Rbe-E2 at a dose of 250 μg/mouse weighing 20 g+CP at a dose of […] 24 hours later (for groups (EAC+CP(4.5)) and (EAC+^85Rbe-E2+CP(4.5)) or […] (for groups (EAC+CP(1.5)) and (EAC+^85Rbe-E2+CP(1.5)) in a volume of 0.25 ml of saline solution (6 injections in total during 8 days).
The tumor growth dynamics in the laboratory animals was observed by daily control of the volume of ascitic fluid in the abdominal cavity of mice starting from the tumor inoculation and for 31 days of the experiment. The dynamics of ascites growth both in control and experimental groups was assessed visually using a 10-point scale, where 0 points were the absence of tumor growth and 10 points were the maximum increase in the size of the abdomen of the mouse with ascites (one point was 0.6 cm of the mean diameter of the mouse abdomen filled with the fluid).
Furthermore, on the 15th and 22nd day after intraperitoneal injection of tumor cells, all ascitic fluid was removed from the abdomen in 2 or 3 animals from each group by washing their peritoneal cavity with saline solution, and live/dead EAC cells were counted in each mouse using the traditional vital dye trypan blue (HyClon, USA) and a hemocytometer.
X=((a)/80)×10^6, where X is the number of cells in 1 ml and a is the number of cells counted in 5 large diagonal squares of the hemocytometer.
7 or 8 mice from each group were used to assess their survival in the experiment. The total lifespan observation time was 31 days from the moment of inoculation of tumor cells.
Statistical data processing. […]

[3] = 85Rbe-E2 750 μg/mouse IP total, alone, 14 mice per group
[4] = Day 15, 85Rbe-E2 750 μg/mouse IP total, alone
[5] = Day 22, 85Rbe-E2 750 μg/mouse IP total, alone
[6] = day 15, 85Rbe-E2 750 μg/mouse IP total, alone
[7] = day 17, 85Rbe-E2 750 μg/mouse IP total, alone
[8] = day 22, 85Rbe-E2 750 μg/mouse IP total, alone
[9] = day 24, 85Rbe-E2 750 μg/mouse IP total, alone
[10] = day 27, 85Rbe-E2 750 μg/mouse IP total, alone
[11] = day 29, 85Rbe-E2 750 μg/mouse IP total, alone
[12] = day 31, 85Rbe-E2 750 μg/mouse IP total, alone

Cc1ccc(S(=O)(=O)Nc2ccccc2NC(=O)c2ccccc2)cc1 [^85Rbe − E2, ^85Rb-enriched rubidium salt of N-benzoyl-N′-(4-toluenesulfonyl)-o-phenylenediamine]
% surviving MM-4 cells ([1]; E2+85Rbe 0.5 μg/ml alone): 32.3 ± 0.7%
% surviving MM-4 cells ([1]; E2+85Rbe 1 μg/ml alone): 8.3 ± 0.5%
% surviving MM-4 cells ([1]; E2+85Rbe 2 μg/ml alone): 6.4 ± 0.3%
Animals without tumor, % ([2]; 85Rbe-E2 750 μg/mouse IP total, alone): 0%
Number of animals in the group with tumor [2, 3]: 14
Number of animals in the group without tumor [2, 3]: 0
Last day with statistically significant inhibition of EAC growth vs control ([2]; 85Rbe-E2 alone): 15 days
Suppression of carcinoma growth vs control, average ([2]; 85Rbe-E2 alone, by the 15th day after inoculation): 18%
Number of dead cells/mouse, % [2, 4]: 4.3 ± 1.5%
Number of live cells/mouse, ×10^6 (M ± m) [2, 4]: 1917 ± 408 ×10^6
Volume of ascites [2, 4]: 6.5 ± 2.9 mL
Number of dead cells/mouse, % [2, 5]: 15.4 ± 3.6%
Number of live cells/mouse, ×10^6 (M ± m) [2, 5]: 2062 ± 438 ×10^6
Volume of ascites [2, 5]: 16.4 ± 4.8 mL
Survival, percent of mice ([2]; day 0, 85Rbe-E2 750 μg/mouse IP total, alone): 100%
Size of mouse abdomen, points ([2]; day 9, 85Rbe-E2 750 μg/mouse IP total, alone): 4.4 ± 0.2 points
Size of mouse abdomen, points ([2]; day 13, 85Rbe-E2 750 μg/mouse IP total, alone): 6 ± 0.3 points
Size of mouse abdomen, points [2, 6]: 6.5 ± 0.3 points
Survival, percent of mice [2, 6]: 100%
Size of mouse abdomen, points [2, 7]: 8 ± 0.6 points
Survival, percent of mice [2, 7]: 85.7%
Survival, percent of mice ([2]; day 19, 85Rbe-E2 750 μg/mouse IP total, alone): 85.7%
Size of mouse abdomen, points ([2]; day 20, 85Rbe-E2 750 μg/mouse IP total, alone): 9 ± 0.4 points
Size of mouse abdomen, points [2, 8]: 9.5 ± 0.4 points
Survival, percent of mice [2, 8]: 85.7%
Size of mouse abdomen, points [2, 9]: 10 points
Survival, percent of mice [2, 9]: 85.7%
Survival, percent of mice ([2]; day 25, 85Rbe-E2 750 μg/mouse IP total, alone): 71%
Survival, percent of mice ([2]; day 26, 85Rbe-E2 750 μg/mouse IP total, alone): 71%
Size of mouse abdomen, points [2, 10]: 10 points
Survival, percent of mice [2, 10]: 57%
Survival, percent of mice ([2]; day 28, 85Rbe-E2 750 μg/mouse IP total, alone): 43%
Size of mouse abdomen, points [2, 11]: 10 points
Survival, percent of mice [2, 11]: 29%
Size of mouse abdomen, points [2, 12]: 10 points
Survival, percent of mice [2, 12]: 14%
Effect on the survival rate of mice ([2]; series of IP injections of 85Rbe-E2 alone): did not have a significant effect
